ChEMBL document CHEMBL5046301, “pH-Responsive Antimicrobial Peptide with Selective Killing Activity for Bacterial Abscess Therapy” (J Med Chem, 2022)
Calls of active or inactive are those of the source. The calls are words filed in the database; no cut-off is given here.

Legend:
Pseudomonas aeruginosa [1] = experiment: Induction of morphological changes in Pseudomonas aeruginosa ATCC 27853 assessed as plasma membrane collapse at 2 uM at pH 6.5 incubated for 1 hr by TEM analysis; format: functional, organism-based
Pseudomonas aeruginosa [2] = experiment: Induction of morphological changes in Pseudomonas aeruginosa ATCC 27853 assessed as disruption in cell membrane at 2 uM at pH 6.5 incubated for 1 hr by SEM analysis; format: functional, organism-based
Salmonella typhimurium [3] = experiment: Antibacterial activity against Salmonella typhimurium ATCC 14028 assessed as inhibition of bacterial growth at pH 7.4 incubated for 24 hrs by NCCLS protocol based method; format: functional, Salmonella enterica subsp. enterica serovar Typhimurium; conditions: Salmonella enterica
Cell membrane [4] = experiment: Induction of outer membrane permeabilization in Pseudomonas aeruginosa ATCC 27853 assessed as pH responsive ability by measuring fold increase in NPN uptake at 64 uM by NPN-dye based fluorescence analysis relative to control; format: subcellular
Salmonella typhimurium [5] = experiment: Antibacterial activity against Salmonella typhimurium ATCC 14028 assessed as inhibition of bacterial growth at pH 6.5 incubated for 24 hrs by NCCLS protocol based method; format: functional, Salmonella enterica subsp. enterica serovar Typhimurium; conditions: Salmonella enterica
Pseudomonas aeruginosa [6] = experiment: Antipseudomonal activity against Pseudomonas aeruginosa ATCC 27853 infected in ICR cutaneous abscess mouse model assessed as fold reduction in colony forming unit at 5 mg/kg,ip administered twice a day measured after 72 hrs relative to control; format: functional
Mus musculus = experiment: Antiinflammatory activity in ICR cutaneous abscess mouse model assessed as reduction in IL-1beta expression in serum at 5 mg/kg,ip administered twice a day measured after 72 hrs by ELISA (reference value: 9.9 +/ 0.47 10^1pg/ml); format: functional
[7] = Toxicity in ICR cutaneous abscess mouse model assessed as reduction in epidermal cell apoptosis at 10 mg/kg,sc measured after 24 hrs by TUNEL assay; format: organism-based; conditions: in vivo
Pseudomonas aeruginosa [8] = experiment: Antipseudomonal activity against Pseudomonas aeruginosa ATCC 27853 infected in ICR cutaneous abscess mouse model assessed as reduction in lesion area at 5 mg/kg,ip administered twice a day measured after 72 hrs (reference value: […]); format: functional
[9] = Cytotoxicity against mouse RAW264.7 cells assessed as inhibition of cell growth at pH 7.4 measured after 24 hrs by MTT assay; format: toxicity, cell-based
Pseudomonas aeruginosa [10] = experiment: Antibacterial activity against Pseudomonas aeruginosa ATCC 27853 assessed as inhibition of bacterial growth at pH 6.5 incubated for 24 hrs by NCCLS protocol based method; format: functional
[11] = Hemolytic activity against human RBC assessed as hemoglobin release at pH 6.5 incubated for 1 hrs; format: toxicity, cell-based; conditions: erythrocyte, pH 6.5, 1 h
Staphylococcus aureus = experiment: Antibacterial activity against Staphylococcus aureus ATCC 29213 assessed as inhibition of bacterial growth at pH 7.4 incubated for 24 hrs by NCCLS protocol based method; format: functional
Cell membrane [12] = experiment: Induction of outer membrane permeabilization in Pseudomonas aeruginosa ATCC 27853 assessed as increase in NPN uptake by NPN-dye based fluorescence analysis; format: subcellular; conditions: dose 1-64 µM

H-FLEHLIPHVIHGLVHAIHH-NH2
Activity (Pseudomonas aeruginosa [1]): Active
Activity (Pseudomonas aeruginosa [2]): Active
MIC (Salmonella typhimurium [3]): > 64 µM
Activity (Cell membrane [4]): 65.9%
MIC (Salmonella typhimurium [5]): 16 µM
fold change (FC) (Pseudomonas aeruginosa [6]): 10
Activity (Mus musculus): 6.93 10^1pg/ml
Activity [7]: Non-Toxic
Activity (Pseudomonas aeruginosa [8]): 2.97 10^1/mm2
IC50 at 24 h [9]: > 128 µM
MIC (Pseudomonas aeruginosa [10]): 2 µM
MHC10 [11]: > 128 µM
MIC (Staphylococcus aureus): > 64 µM
Activity (Cell membrane [12]): Dose-Dependent Effect
